These results are taken from ChEMBL document CHEMBL3621136, “Design, synthesis, and biological and docking studies of novel epipodophyllotoxinchalcone hybrids as potential anticancer agents” (Medchemcomm, 2015).

Structures are written as SMILES.

What all share (type): functional, cell-based
The test system of one test is DU-145. As to the kind of experiment: Cytotoxicity against human DU145 cells assessed as growth inhibition after 48 hrs by SRB assay. The following applies: DU-145, 48 h. (In general: Sulforhodamine B stains cellular protein and so reports cell mass.)
For another test, the system named is COLO 205. As to the kind of experiment: Cytotoxicity against human COLO205 cells assessed as growth inhibition after 48 hrs by SRB assay. The following applies: COLO 205, 48 h.
The subject of the next test is SK-N-SH. Kind of test: Cytotoxicity against human SK-N-SH cells assessed as growth inhibition after 48 hrs by SRB assay.
For another test, the system named is HeLa. Kind of test: Cytotoxicity against human HeLa cells assessed as growth inhibition after 48 hrs by SRB assay.
In the next test the test system is HCT-15. As to the kind of experiment: Cytotoxicity against human HCT15 cells assessed as growth inhibition after 48 hrs by SRB assay. To be noted: HCT-15, 48 h.
The subject of another test is SW-620. Kind of test: Cytotoxicity against human SW620 cells assessed as growth inhibition after 48 hrs by SRB assay. The following applies: SW-620, 48 h.

Usually IC50 stands for the midpoint of a concentration-inhibition curve. With `COc1cc([C@@H]2c3cc4c(cc3[C@@H](n3cc(COc5ccc(C(C)=O)cc5)nn3)[C@H]3COC(=O)[C@H]23)OCO4)cc(OC)c1OC`, the IC50 worked out at 13.6 µM in the test with DU-145; 18.8 µM with COLO 205; 15.6 µM in the test with SK-N-SH; 18.5 µM in the test on HeLa; 13.5 µM in the test with HCT-15; 14.6 µM in the test with SW-620.

As for `COc1cc([C@@H]2c3cc4c(cc3[C@@H](n3cc(COc5ccc(/C=C/C(C)=O)cc5)nn3)[C@H]3COC(=O)[C@H]23)OCO4)cc(OC)c1OC`, the IC50 in the test on DU-145 amounted to 11.3 µM; with COLO 205, 7.6 µM; with SK-N-SH, 14.4 µM; in the test on HCT-15, 16.3 µM; with SW-620, 10.2 µM.

Regarding `COc1cc(/C=C/C(C)=O)ccc1OCc1cn([C@@H]2c3cc4c(cc3[C@@H](c3cc(OC)c(OC)c(OC)c3)[C@H]3C(=O)OC[C@@H]32)OCO4)nn1`, the IC50 with COLO 205 came out at 8.98 µM; in the test with SK-N-SH, 10 µM; in the test with HeLa, 3.4 µM; in the test on HCT-15, 10.4 µM; in the test on SW-620, 3.41 µM.

Regarding `COc1cc([C@@H]2c3cc4c(cc3[C@@H](n3cc(COc5ccc(C(=O)/C=C/c6ccccc6)cc5)nn3)[C@H]3COC(=O)[C@H]23)OCO4)cc(OC)c1OC`, the IC50 with DU-145 came out at 30.2 µM; in the test on COLO 205, 9.12 µM; with SK-N-SH it was 4.13 µM; in the test on HeLa, 5.34 µM; with HCT-15, 12.8 µM; in the test on SW-620, 2.02 µM.

In the case of `COc1cc([C@@H]2c3cc4c(cc3[C@@H](n3cc(COc5ccc(/C=C/C(=O)c6ccccc6)cc5)nn3)[C@H]3COC(=O)[C@H]23)OCO4)cc(OC)c1OC`, the IC50 came out at 30 µM in the test on DU-145; 29.3 µM in the test on COLO 205; 25.6 µM in the test with SK-N-SH; 19.1 µM in the test on HeLa; 15.3 µM in the test on HCT-15; 9.2 µM with SW-620.

Take `COc1cc([C@@H]2c3cc4c(cc3[C@@H](n3cc(COc5ccc(C(=O)/C=C/c6ccc(F)cc6)cc5)nn3)[C@H]3COC(=O)[C@H]23)OCO4)cc(OC)c1OC`: the IC50 in the test with DU-145 was found to be 6.5 µM; in the test on COLO 205, 13.2 µM; with SK-N-SH, 3.4 µM; in the test with HCT-15, 12 µM; in the test with SW-620, 2.4 µM.

As to `COc1cc([C@@H]2c3cc4c(cc3[C@@H](n3cc(COc5ccc(C(=O)/C=C/c6cccc(F)c6)cc5)nn3)[C@H]3COC(=O)[C@H]23)OCO4)cc(OC)c1OC`, the IC50 in the test with DU-145 was 13.3 µM; in the test with COLO 205, 7.32 µM; in the test with SK-N-SH, 12.4 µM; in the test on HeLa, 14.2 µM; with HCT-15, 15.6 µM; with SW-620, 5.21 µM.

With `COc1cc([C@@H]2c3cc4c(cc3[C@@H](n3cc(COc5ccc(C(=O)/C=C/c6ccccc6F)cc5)nn3)[C@H]3COC(=O)[C@H]23)OCO4)cc(OC)c1OC`, the IC50 in the test on DU-145 was found to be 20.2 µM; with SK-N-SH, 6.73 µM; with HeLa, 17.2 µM; in the test on HCT-15, 12.9 µM; in the test with SW-620, 8.12 µM.

With `COc1cc([C@@H]2c3cc4c(cc3[C@@H](n3cc(COc5ccc(C(=O)/C=C/c6cccc(C)c6)cc5)nn3)[C@H]3COC(=O)[C@H]23)OCO4)cc(OC)c1OC`, the IC50 was 9.36 µM in the test on DU-145; 8.23 µM with COLO 205; 7.13 µM in the test with SK-N-SH; 12.2 µM in the test on HeLa; 6.53 µM in the test on SW-620.

Consider `COc1ccc(/C=C/C(=O)c2ccc(OCc3cn([C@@H]4c5cc6c(cc5[C@@H](c5cc(OC)c(OC)c(OC)c5)[C@H]5C(=O)OC[C@@H]54)OCO6)nn3)cc2)cc1`, for which the IC50 in the test with DU-145 was determined as 10.2 µM; with COLO 205, 12.3 µM; in the test with SK-N-SH, 7.32 µM; in the test on HCT-15, 6.12 µM; in the test on SW-620 it was 11.2 µM.

On to `COc1cc([C@@H]2c3cc4c(cc3[C@@H](n3cc(COc5ccc(C(C)=O)cc5)nn3)[C@H]3COC(=O)[C@H]23)OCO4)cc(OC)c1O`, for which the IC50 with DU-145 amounted to 16.6 µM; with COLO 205, 14.8 µM; in the test with SK-N-SH, 11.6 µM; with HeLa, 18.9 µM; in the test on HCT-15 it was 12 µM; in the test on SW-620, 11.6 µM.

`COc1cc([C@@H]2c3cc4c(cc3[C@@H](n3cc(COc5ccc(/C=C/C(C)=O)cc5)nn3)[C@H]3COC(=O)[C@H]23)OCO4)cc(OC)c1O`: the IC50 with DU-145 amounted to 12 µM; in the test with SK-N-SH, 10.3 µM; with HeLa, 13.1 µM; in the test on HCT-15, 6.82 µM; in the test with SW-620, 7.5 µM.

On to `COc1cc(/C=C/C(C)=O)ccc1OCc1cn([C@@H]2c3cc4c(cc3[C@@H](c3cc(OC)c(O)c(OC)c3)[C@H]3C(=O)OC[C@@H]32)OCO4)nn1`, for which the IC50 in the test with DU-145 worked out at 6.5 µM; with COLO 205, 18.2 µM; in the test on SK-N-SH, 5.45 µM; in the test on HeLa it was 5 µM; in the test with HCT-15 it was 12.4 µM; in the test with SW-620, 5.66 µM.

`COc1cc([C@@H]2c3cc4c(cc3[C@@H](n3cc(COc5ccc(C(=O)/C=C/c6ccccc6)cc5)nn3)[C@H]3COC(=O)[C@H]23)OCO4)cc(OC)c1O`: the IC50 was 12 µM in the test with DU-145; 12.3 µM in the test with COLO 205; 0.66 µM with SK-N-SH; 5.9 µM in the test with HeLa; 9.5 µM with HCT-15; 0.64 µM with SW-620.

As to `COc1cc([C@@H]2c3cc4c(cc3[C@@H](n3cc(COc5ccc(/C=C/C(=O)c6ccccc6)cc5)nn3)[C@H]3COC(=O)[C@H]23)OCO4)cc(OC)c1O`, the IC50 in the test on DU-145 was determined as 5.45 µM; with SK-N-SH, 8.3 µM; in the test on HeLa, 9.18 µM; in the test with HCT-15, 6.75 µM; with SW-620, 4.4 µM.

On to `COc1cc([C@@H]2c3cc4c(cc3[C@@H](n3cc(COc5ccc(C(=O)/C=C/c6ccc(F)cc6)cc5)nn3)[C@H]3COC(=O)[C@H]23)OCO4)cc(OC)c1O`, for which the IC50 in the test on DU-145 was found to be 12 µM; with COLO 205 it was 12.5 µM; in the test with SK-N-SH, 0.39 µM; in the test on HeLa, 4.5 µM; with HCT-15, 12.4 µM; in the test on SW-620, 0.35 µM.

On to `COc1cc([C@@H]2c3cc4c(cc3[C@@H](n3cc(COc5ccc(C(=O)/C=C/c6cccc(F)c6)cc5)nn3)[C@H]3COC(=O)[C@H]23)OCO4)cc(OC)c1O`, for which the IC50 with DU-145 is 7.4 µM; with COLO 205, 5.15 µM; in the test on SK-N-SH it was 4.5 µM; in the test on HeLa it was 6.4 µM; in the test on SW-620, 5.36 µM.

For `COc1cc([C@@H]2c3cc4c(cc3[C@@H](n3cc(COc5ccc(C(=O)/C=C/c6ccccc6F)cc5)nn3)[C@H]3COC(=O)[C@H]23)OCO4)cc(OC)c1O`, the IC50 in the test on DU-145 was 9.34 µM; with COLO 205, 12.3 µM; in the test with SK-N-SH, 7.4 µM; in the test with HCT-15 it was 15.2 µM; with SW-620 it was 12.6 µM.

In the case of `COc1cc([C@@H]2c3cc4c(cc3[C@@H](n3cc(COc5ccc(C(=O)/C=C/c6cccc(C)c6)cc5)nn3)[C@H]3COC(=O)[C@H]23)OCO4)cc(OC)c1O`, the half-maximal inhibitory concentration (IC50) in the test with DU-145 turned out to be 20.5 µM; with COLO 205 it was 15.4 µM; in the test on SK-N-SH, 13.5 µM; in the test with HeLa, 9.32 µM; in the test with HCT-15 it was 12.2 µM; in the test on SW-620, 11.5 µM.

For the compound `COc1ccc(/C=C/C(=O)c2ccc(OCc3cn([C@@H]4c5cc6c(cc5[C@@H](c5cc(OC)c(O)c(OC)c5)[C@H]5C(=O)OC[C@@H]54)OCO6)nn3)cc2)cc1`, the IC50 with DU-145 amounted to 12.5 µM; in the test with SK-N-SH it was 15.6 µM; with HeLa it was 6.8 µM; with HCT-15, 7.45 µM; with SW-620 it was 10.3 µM.

In the case of `COc1cc([C@@H]2c3cc4c(cc3[C@@H](O[C@@H]3O[C@@H]5CO[C@@H](C)O[C@H]5[C@H](O)[C@H]3O)[C@H]3COC(=O)[C@H]23)OCO4)cc(OC)c1O` [ETOPOSIDE], the IC50 was determined as 16.4 µM in the test on DU-145; 14.2 µM in the test with COLO 205; 9.03 µM with SK-N-SH; 10.4 µM in the test with HeLa; 12.2 µM with HCT-15; 13.2 µM with SW-620.
